Measurements reported in US11959083B2, “Immunosuppression-reverting oligonucleotides inhibiting the expression of CD39” (Secarna Pharmaceuticals GmbH & Co. KG, priority 2016, dated 2024).
l = locked nucleic acid (LNA); d = 2'-deoxy (DNA)

Key:
Format in all cases: cell-based, human
hCD39 mRNA [1] = test: hCD39 mRNA knockdown efficacy screen in HDLM-2 cells (single dose, gymnotic delivery, QuantiGene Singleplex); conditions: 10 μM; for Mean hCD39 mRNA expression normalized to HPRT1 relative to untreated control = 1: first screening round; for Relative hCD39 mRNA expression (compared to non-treated cells): second screening round, normalized to HPRT1
In short: (§1)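 Antisense oligonucleotides given once at 10 μM without transfection reagent (gymnotic) to HDLM-2 or A-172 cells for 3 days. hCD39 mRNA measured by QuantiGene Singleplex, normalized to HPRT1 and expressed relative to untreated cells; triplicate means.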

hCD39 mRNA [2] = test: hCD39 mRNA knockdown efficacy screen in A-172 cells (single dose, gymnotic delivery, QuantiGene Singleplex); conditions: 10 μM; for Mean hCD39 mRNA expression (relative to untreated cells set as 1): first screening round; for Mean hCD39 mRNA expression (relative to untreated cells set as 1) / Relative hCD39 mRNA expression (compared to non-treated cells): normalized to HPRT1; for Relative hCD39 mRNA expression (compared to non-treated cells): second screening round
In short: as §1

hCD39 mRNA [3] = test: IC50 determination / concentration-dependent hCD39 mRNA knockdown in HDLM-2 cells; conditions: for mRNA inhibition: HDLM-2, 3 days; for IC50: hCD39 mRNA, 3 days
In short: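 Antisense oligonucleotides applied to HDLM-2 cells for 3 days, titrated 10 μM down to 4.5 nM. hCD39 mRNA normalized to HPRT1 and expressed as residual level relative to untreated cells (100); mean of triplicates, IC50 from concentration-response.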

+C*+G*+T*T*T*A*G*G*C*T*A*T*G*T*A*+C*+T*+T (CGTTTAGGCTATGTACTT; chemistry not fully specified) [neg1, negative control antisense oligonucleotide not hybridizing with CD39, described in WO2014154843 A1, reference compound]
influence on the expression of hCD39 (hCD39 mRNA [1]): no negative influence on the expression of hCD39 | Mean hCD39 mRNA expression normalized to HPRT1 relative to untreated control = 1 (hCD39 mRNA [1]; 3 days): 1.09 | Relative hCD39 mRNA expression (compared to non-treated cells) (hCD39 mRNA [1]; 3 days): 1.09 | influence on the expression of hCD39 (hCD39 mRNA [2]): no negative influence on the expression of hCD39 | Mean hCD39 mRNA expression (relative to untreated cells set as 1) (hCD39 mRNA [2]; 3 days): 1.36 | Relative hCD39 mRNA expression (compared to non-treated cells) (hCD39 mRNA [2]; 3 days): 0.79

+G*+T*+T*T*G*T*G*T*G*A*G*A*G*C*+T*+T (antisense GTTTGTGTGAGAGCTT; sugars from the 5' end l3 d11 l2, all phosphorothioate, methylation of C not given here) [A04040H]
mRNA inhibition (hCD39 mRNA [3]; 0.45 nM, Table 12): 0.00% | mRNA inhibition (hCD39 mRNA [3]; 1.3 nM, Table 12): 0.00% | mRNA inhibition (hCD39 mRNA [3]; 4 nM, Table 12): 0.00% | mRNA inhibition (hCD39 mRNA [3]; 0.0045 μM, Table 8): 22.64% | mRNA inhibition (hCD39 mRNA [3]; 0.0045 μM, Table 9): 12.51% | mRNA inhibition (hCD39 mRNA [3]; 12 nM, Table 12): 0.00% | mRNA inhibition (hCD39 mRNA [3]; 0.013 μM, Table 8): 40.51% | mRNA inhibition (hCD39 mRNA [3]; 0.013 μM, Table 9): 36.68% | mRNA inhibition (hCD39 mRNA [3]; 0.04 μM, Table 8): 62.42% | mRNA inhibition (hCD39 mRNA [3]; 0.04 μM, Table 9): 74.68% | mRNA inhibition (hCD39 mRNA [3]; 40 nM, Table 12): 27.56% | mRNA inhibition (hCD39 mRNA [3]; 110 nM, Table 12): 69.84% | mRNA inhibition (hCD39 mRNA [3]; 0.12 μM, Table 8): 88.40% | mRNA inhibition (hCD39 mRNA [3]; 0.12 μM, Table 9): 93.14% | mRNA inhibition (hCD39 mRNA [3]; 330 nM, Table 12): 91.26% | mRNA inhibition (hCD39 mRNA [3]; 0.4 μM, Table 8): 95.94% | mRNA inhibition (hCD39 mRNA [3]; 0.4 μM, Table 9): 98.42% | mRNA inhibition (hCD39 mRNA [3]; 1000 nM, Table 12): 97.06% | mRNA inhibition (hCD39 mRNA [3]; 1.1 μM, Table 8): 98.54% | mRNA inhibition (hCD39 mRNA [3]; 1.1 μM, Table 9): 99.38% | mRNA inhibition (hCD39 mRNA [3]; 3.3 μM, Table 8): 99.01% | mRNA inhibition (hCD39 mRNA [3]; 3.3 μM, Table 9): 99.32% | mRNA inhibition (hCD39 mRNA [3]; 10 μM, Table 8): 98.98% | mRNA inhibition (hCD39 mRNA [3]; 10 μM, Table 9): 99.57% | maximal target inhibition (hCD39 mRNA) (hCD39 mRNA [3]; HDLM-2 cells, compared to untreated cells, first IC50 determination): 99% | IC50 (hCD39 mRNA [3]; HDLM-2 cells, first screening round (Table 8)): 0.0253 µM | IC50 (hCD39 mRNA [3]; HDLM-2 cells, second screening round (Table 9)): 0.0215 µM | IC50 (hCD39 mRNA [3]; HDLM-2 cells, third screening round (Table 12)): 0.0528 µM | Mean hCD39 mRNA expression normalized to HPRT1 relative to untreated control = 1 (hCD39 mRNA [1]; 3 days): 0.08 | Relative hCD39 mRNA expression (compared to non-treated cells) (hCD39 mRNA [1]; 3 days): 0.06 | Residual hCD39 mRNA expression relative to untreated cells (set as 1) (hCD39 mRNA [1]; 3 days, third screening round): 0.01 | Mean hCD39 mRNA expression (relative to untreated cells set as 1) (hCD39 mRNA [2]; 3 days): 0.07 | Relative hCD39 mRNA expression (compared to non-treated cells) (hCD39 mRNA [2]; 3 days): 0.04 | Residual hCD39 mRNA expression relative to untreated cells (set as 1) (hCD39 mRNA [2]; 3 days, third screening round): 0.05
